Measured values as given in US8048889B2, “3,4-disubstituted coumarin and quinolone compounds” (XTL Biopharmaceuticals Ltd., priority 2005, dated 2011).

Key:
[1] = tested on: HCV Replicon (HCV IRES driven luciferase reporter in Huh-Luc-Neo cells); assay: HCV Replicon Luciferase Assay; format: cell-based; conditions: Hepatitis C virus, 48 h, no unit in table, hit threshold in μM
Description: (§1) The identification of inhibitors of HCV replication and/or proliferation has been facilitated by the development of a cell based system to study HCV replication and assay for HCV inhibitors. Inhibition of HCV replication may be performed using the HCV Replicon Assay developed in the laboratories of Bartenschlager (Lohman et al, Science 285, 110-113, 1999) and Rice (Blight et al, Science 290, 1972-1974, 2000). The assay is performed using the Huh-Luc-Neo cell line (Lohman et al, Science 285, 110-113, 1999). Huh-Luc-Neo cells are a human hepatoma cell line (Huh-7) stably expressing a bi-cistronic subgenomic replicon containing the HCV IRES in which the structural proteins of HCV had been deleted and replaced by a construct containing sequences coding for the firefly luciferase reporter gene, the neomycin selectable marker and the EMCV IRES to direct expression of a truncated HCV genome expressing the […] NS3, NS4A, NS4B, NS5A, and NS5B. HCV targets through which inhibitors could act to inhibit replication include the NS3 protease, the helicase/ATPase, NS5A, the NS5B- RNA dependent RNA polymerase, and the HCV IRES.
(§2) Expression of HCV IRES driven luciferase reporter activity and HCV RNA is measured to obtain indirect and direct measures of replication of HCV RNA respectively. Inhibitors of HCV replication and/or proliferation are determined by initially identifying molecules that inhibit expression of the HCV IRES driven luciferase reporter in this HCV Replicon Luciferase Assay. Cell viability assays and control cell based luciferase assays are then run on hits identified in the HCV Replicon Luciferase Assay to eliminate cytoxic compounds and non-specific compounds which act by inhibiting the luciferase enzyme.
Day 0 Cell Seeding and Compound Treatment: Huh-Luc-Neo Cells are seeded at 25,000/well in an opaque-walled 96 plate with Growth Medium (DMEM phenol red free+PS+2 mM glutamine; 100 μl/well). The compounds to be tested are added to the experimental wells (10 μl/well at 10× assay concentration) and the cells are then incubated (5% CO2, 37° C.) for 48 h.
(§3) Day 2 Reagent Preparation and Luciferase Assay: The Bright-Glo Luciferase Assay Buffer (Promega) is thawed and equilibrated to room temperature prior to use. The lyophilized Bright-Glo Luciferase Assay Substrate is equilibrated to room temperature prior to use. 10 ml of Bright-Glo Luciferase Assay Buffer is transferred to 1 vial of Bright-Glo Luciferase Assay Substrate bottle and mixed by gently with a Vortex. 100 ul of Bright-Glo Luciferase Assay reagent (Bright-Glo Luciferase Assay Buffer+Bright-Glo Luciferase Assay Substrate Mixture) is added to each well. The well contents are mixed for 5 min. on an orbital shaker at room temperature to induce cell lysis and the luminescence is then measured using a luminometer. The data is analyzed and IC50s are determined using GraphPad Prism 4 software. Hits validated in the Replicon Luciferase assay have IC50s<8.0 μM and show<30% inhibition of Cell Viability at a compound concentration of 100 μM (Cell Titer Glow Assay, cell viability assay conditions identical to HCV Replicon Luciferase Assay conditions).

[2] = tested on: HCV Replicon (HCV RNA in Huh-Luc-Neo cells); assay: HCV Replicon RNA Assay (Taqman); format: cell-based, Hepatitis C virus; conditions: compound added day 0 and day 1, no unit in table, hit threshold in μM; for IC50: Hepatitis C virus
Description: as §1, §2
Day 0, Cell Seeding and Compound Treatment: Huh-Luc-Neo Cells are seeded at 25,000/well in an opaque-walled 96 plate with Growth Medium (DMEM phenol red free+PS+2 mM glutamine; 100 μl/well). The compounds to be tested are added to the experimental wells (10 μl/well at 10× assay concentration) and the cells are then incubated (5% CO2, 37° C.).
Day 1, Media Change and Compound Treatment: 24 hours after the initial compound treatment the cell culture media is aspirated from the wells and fresh Growth Medium is added (DMEM phenol red free+PS+2 mM glutamine; 100 μl/well). The compounds to be tested are then added to the appropriate experimental wells (10 μl/well at 10 × assay concentration) and the cells are then incubated (5% CO2, 37° C.) for an additional 24 hrs.
Day 2, RNA Isolation and cDNA Synthesis: The cells are washed with 1× Phosphate Buffered Saline (PBS) once.
(§4) Day 3, Quantitative PCR Based Measurement of HCV RNA (Taqman Assay): Quantitative PCR analysis to measure HCV RNA expression from cDNA synthesized on Day 2 is performed using the ABI 9700 HT Sequence Detection System (Applied Biosystems) as previously described (Lohman et al, Science 285, 110-113, 1999). The data is analyzed and IC50s are determined using GraphPad Prism 4 software. Hits validated in the Replicon RNA Assay have IC50s<8.0 μM and show <30% inhibition of Cell Viability at a compound concentration of 50 μM (Cell Titer Glow Assay, cell viability assay conditions identical to HCV Replicon RNA Assay conditions).

Huh-Luc-Neo cells = assay: CellTiter-Glo Cell Viability Assay; format: cell-based, human; conditions: for Toxicity % Inhibition at 50 uM (2 doses): inhibition of cell viability at 50 uM, conditions as in Replicon RNA Assay; for Toxicity % Inhibition at 100 um (1 dose): inhibition of cell viability at 100 um, conditions as in Replicon Luciferase Assay (48 h)
Description: as §3, §4
Day 0, Cell Seeding and Compound Treatment: Huh-Luc-Neo Cells are seeded at 25,000/well in an opaque-walled 96 plate with Growth Medium (DMEM phenol red free+PS+2 mM glutamine; 100 ul/well). The compounds to be tested for inhibition of cell viability are added to the experimental wells (10 μl/well at 10× assay concentration) and the cells are then incubated (5% CO2, 37° C.) for 48 h.
Day 2, Reagent Preparation and Assay: The CellTiter-Glo Buffer is thawed and equilibrated to room temperature prior to use. The lyophilized CellTiter-Glo Substrate is equilibrated to room temperature prior to use. 10 ml of CeliTiter-Glo Buffer is transferred to 1 vial of CellTiter-Glo Substrate and mixed by gently with a Vortex. 100 μl of CellTiter-Glo Assay reagent (CellTiter-Glo Buffer+CellTiter-Glo Substrate Mixture) is added to each well. The well contents are mixed for 5 min. on an orbital shaker at room temperature to induce cell lysis and the luminescence is then measured using a luminometer.

SMILES: COc1ccc2c(OCc3cccc(C)c3)c(Cc3cccc(C)c3)c(=O)oc2c1 [VQ_31729]
- IC50 [1]: 3.53 µM
- IC50 [2]: 0.36 µM
- Toxicity % Inhibition at 50 uM (2 doses) (Huh-Luc-Neo cells): 5.1%
- Toxicity % Inhibition at 100 um (1 dose) (Huh-Luc-Neo cells): 3.0%

SMILES: O=c1oc2ccccc2c(OCc2cccc(C(F)(F)F)c2)c1Cc1cccc(C(F)(F)F)c1 [VQ_31711]
- IC50 [1]: 5.16 µM
- IC50 [2]: 0.12 µM
- Toxicity % Inhibition at 50 uM (2 doses) (Huh-Luc-Neo cells): 4.3%
- Toxicity % Inhibition at 100 um (1 dose) (Huh-Luc-Neo cells): 4.6%

SMILES: COc1ccc2c(OCc3ccc(C(F)(F)F)cc3)c(Cc3ccc(C(F)(F)F)cc3)c(=O)oc2c1 [VQ_31758]
- IC50 [1]: 6.16 µM
- IC50 [2]: 5.24 µM
- Toxicity % Inhibition at 50 uM (2 doses) (Huh-Luc-Neo cells): 2.6%
- Toxicity % Inhibition at 100 um (1 dose) (Huh-Luc-Neo cells): 14.7%

SMILES: O=c1oc2ccccc2c(OCc2ccc(C(F)(F)F)cc2)c1Cc1ccc(C(F)(F)F)cc1 [VQ_31712]
- IC50 [1]: 4.92 µM
- IC50 [2]: > 30 µM
- Toxicity % Inhibition at 50 uM (2 doses) (Huh-Luc-Neo cells): 10.0%
- Toxicity % Inhibition at 100 um (1 dose) (Huh-Luc-Neo cells): 16.6%

SMILES: COc1ccc(/N=C/c2c(Nc3ccc(OC)cc3)c3ccccc3oc2=O)cc1 [VQ_36473]
- IC50 [1]: 0.02 µM
- IC50 [2]: 1.71 µM
- Toxicity % Inhibition at 50 uM (2 doses) (Huh-Luc-Neo cells): 10.7%
- Toxicity % Inhibition at 100 um (1 dose) (Huh-Luc-Neo cells): 4.3%

SMILES: Cc1ccc(Nc2c(CNc3ncccn3)c(=O)oc3ccccc23)cc1 [VQ_36343]
- IC50 [1]: 0.13 µM
- IC50 [2]: 0.16 µM
- Toxicity % Inhibition at 50 uM (2 doses) (Huh-Luc-Neo cells): 37.9%
- Toxicity % Inhibition at 100 um (1 dose) (Huh-Luc-Neo cells): 21.1%

SMILES: COc1ccc(Nc2c(/C=N/c3nc4ccccc4s3)c(=O)oc3ccccc23)cc1 [VQ_36469]
- IC50 [1]: 53.6 µM
- IC50 [2]: 4.16 µM
- Toxicity % Inhibition at 50 uM (2 doses) (Huh-Luc-Neo cells): 3.3%
- Toxicity % Inhibition at 100 um (1 dose) (Huh-Luc-Neo cells): 14.7%

SMILES: COc1ccc2c(OCc3cccc(Cl)c3)c(Cc3cccc(Cl)c3)c(=O)oc2c1 [VQ_31734]
- IC50 [1]: 3.84 µM
- IC50 [2]: 0.67 µM
- Toxicity % Inhibition at 50 uM (2 doses) (Huh-Luc-Neo cells): 0.7%
- Toxicity % Inhibition at 100 um (1 dose) (Huh-Luc-Neo cells): 4.3%

SMILES: COc1ccc(Nc2c(/C=N/C3CCCCC3)c(=O)oc3ccccc23)cc1 [VQ_36467]
- IC50 [1]: 51.1 µM
- IC50 [2]: 0.46 µM
- Toxicity % Inhibition at 50 uM (2 doses) (Huh-Luc-Neo cells): 13.9%
- Toxicity % Inhibition at 100 um (1 dose) (Huh-Luc-Neo cells): 22.8%

SMILES: COc1ccc2c(OCc3ccccc3C)c(Cc3ccccc3C)c(=O)oc2c1 [VQ_31738]
- IC50 [1]: 5.44 µM
- IC50 [2]: 0.21 µM
- Toxicity % Inhibition at 50 uM (2 doses) (Huh-Luc-Neo cells): 6.1%
- Toxicity % Inhibition at 100 um (1 dose) (Huh-Luc-Neo cells): 23.6%

SMILES: CCCCCC/N=C/c1c(Nc2ccc(OC)cc2)c2ccccc2oc1=O [VQ_36468]
- IC50 [1]: 43.3 µM
- IC50 [2]: 0.71 µM
- Toxicity % Inhibition at 50 uM (2 doses) (Huh-Luc-Neo cells): 16.3%
- Toxicity % Inhibition at 100 um (1 dose) (Huh-Luc-Neo cells): 40.7%

SMILES: Cc1cc2oc(=O)c(Cc3ccc(F)cc3F)c(OCc3ccc(F)cc3F)c2cc1C [VQ_32806]
- IC50 [1]: 5.57 µM
- IC50 [2]: 1.4 µM
- Toxicity % Inhibition at 50 uM (2 doses) (Huh-Luc-Neo cells): 8.3%
- Toxicity % Inhibition at 100 um (1 dose) (Huh-Luc-Neo cells): 16.5%

SMILES: O=c1[nH]c2ccccc2c(OCc2ccc(F)cc2)c1Cc1ccc(F)cc1 [VQ_35018]
- IC50 [1]: 1 µM
- TaqMan IC50 [2]: Inactive
- Toxicity % Inhibition at 50 uM (2 doses) (Huh-Luc-Neo cells): 12.3%
- Toxicity % Inhibition at 100 um (1 dose) (Huh-Luc-Neo cells): 10.0%

SMILES: COc1ccc2c(OCc3ccc(C)cc3)c(Cc3ccc(C)cc3)c(=O)oc2c1 [VQ_31763]
- IC50 [1]: 8.29 µM
- IC50 [2]: 0.43 µM
- Toxicity % Inhibition at 50 uM (2 doses) (Huh-Luc-Neo cells): 6.5%
- Toxicity % Inhibition at 100 um (1 dose) (Huh-Luc-Neo cells): 4.6%

SMILES: COc1ccc(Nc2c(/C=N/c3cc(Cl)cc(Cl)c3)c(=O)oc3ccccc23)cc1 [VQ_36594]
- IC50 [1]: 0.74 µM
- IC50 [2]: > 30 µM
- Toxicity % Inhibition at 50 uM (2 doses) (Huh-Luc-Neo cells): 13.7%
- Toxicity % Inhibition at 100 um (1 dose) (Huh-Luc-Neo cells): 9.1%

SMILES: COc1ccc2c(OCc3ccc(F)cc3F)c(Cc3ccc(F)cc3F)c(=O)oc2c1 [VQ_31744]
- IC50 [1]: 4.5 µM
- IC50 [2]: 0.28 µM
- Toxicity % Inhibition at 50 uM (2 doses) (Huh-Luc-Neo cells): 7.0%
- Toxicity % Inhibition at 100 um (1 dose) (Huh-Luc-Neo cells): 10.9%

SMILES: Cc1ccc(COc2c(Cc3ccc(C)cc3)c(=O)oc3ccccc23)cc1 [VQ_31715]
- IC50 [1]: 2.8 µM
- IC50 [2]: 0.55 µM
- Toxicity % Inhibition at 50 uM (2 doses) (Huh-Luc-Neo cells): 13.4%
- Toxicity % Inhibition at 100 um (1 dose) (Huh-Luc-Neo cells): 53.4%

SMILES: COC(=O)CNCc1c(Nc2ccc(C)cc2)c2ccccc2oc1=O [VQ_36341]
- IC50 [1]: 0.28 µM
- IC50 [2]: 0.4 µM
- Toxicity % Inhibition at 50 uM (2 doses) (Huh-Luc-Neo cells): 31.2%
- Toxicity % Inhibition at 100 um (1 dose) (Huh-Luc-Neo cells): 14.6%

SMILES: COc1ccc2c(OCc3cccc(C(F)(F)F)c3)c(Cc3cccc(C(F)(F)F)c3)c(=O)oc2c1 [VQ_31754]
- IC50 [1]: 5.45 µM
- IC50 [2]: 5.35 µM
- Toxicity % Inhibition at 50 uM (2 doses) (Huh-Luc-Neo cells): 1.9%
- Toxicity % Inhibition at 100 um (1 dose) (Huh-Luc-Neo cells): 2.5%

SMILES: COc1ccc(Nc2c(/C=N/c3ccc(Cl)cc3)c(=O)oc3ccccc23)cc1 [VQ_36471]
- IC50 [1]: 0.04 µM
- IC50 [2]: 1.78 µM
- Toxicity % Inhibition at 50 uM (2 doses) (Huh-Luc-Neo cells): 15.2%
- Toxicity % Inhibition at 100 um (1 dose) (Huh-Luc-Neo cells): 9.8%

SMILES: COc1ccc(Nc2c(/C=N/c3ccc(C)cc3)c(=O)oc3ccccc23)cc1 [VQ_36472]
- IC50 [1]: 0.03 µM
- IC50 [2]: 0.85 µM
- Toxicity % Inhibition at 50 uM (2 doses) (Huh-Luc-Neo cells): 6.5%
- Toxicity % Inhibition at 100 um (1 dose) (Huh-Luc-Neo cells): 5.9%
